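Method: 48-hour compound exposure of cells in 96-well plates, five concentrations, linear interpolation of endpoints. At the GI50, growth is halved.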 Activity calls are given as the source filed them. Cut-off read from the data, not from the text of the source: active = GI50 up to about 1.1 µM and inactive = higher.
Key:
Assay in all cases: inhibition of tumour cell growth, NCI panel, 48 h
UO-31 = tested on: UO-31
M19-MEL = tested on: M19-MEL
K562 = tested on: K562
SF-295 = tested on: SF-295
OVCAR-5 = tested on: OVCAR-5
NCI-H522 = tested on: NCI-H522
HCC 2998 = tested on: HCC 2998
NCI-H460 = tested on: NCI-H460
A549 = tested on: A549
SNB-75 = tested on: SNB-75
M14 = tested on: M14
NCI-H23 = tested on: NCI-H23
ACHN = tested on: ACHN
OVCAR-4 = tested on: OVCAR-4
CCRF-CEM = tested on: CCRF-CEM
UACC-257 = tested on: UACC-257

Measured: GI50

C=C(COC(C)=O)CC(OC(C)=O)c1ccccc1 (centres undefined)
inactive: UO-31 > 100 µM | M19-MEL > 100 µM | K562 > 100 µM | SF-295 > 100 µM | OVCAR-5 > 100 µM | NCI-H522 > 100 µM | HCC 2998 > 100 µM | NCI-H460 > 100 µM | A549 > 100 µM | SNB-75 > 100 µM | M14 > 100 µM | NCI-H23 > 100 µM | ACHN > 100 µM | OVCAR-4 > 100 µM | CCRF-CEM 68.4 µM

CCOC(=O)/C(=C/c1cc(OC)ccc1OC)CC(=O)O
inactive: UO-31 > 100 µM | M19-MEL > 100 µM | K562 > 31.6 µM | SF-295 > 100 µM | NCI-H522 > 100 µM | HCC 2998 > 31.6 µM | NCI-H460 > 100 µM | A549 > 100 µM | SNB-75 > 100 µM | M14 > 100 µM | NCI-H23 > 100 µM | ACHN > 100 µM | OVCAR-4 > 100 µM | UACC-257 > 100 µM | CCRF-CEM > 31.6 µM

N#CC(=C1C=CC(=NO)C=C1)c1ccc(Cl)cc1
inactive: UO-31 11.5 µM | M19-MEL 15 µM | K562 3.78 µM | SF-295 16.6 µM | OVCAR-5 11.9 µM | NCI-H522 2.47 µM | HCC 2998 17.5 µM | NCI-H460 18.2 µM | A549 18.7 µM | SNB-75 24.3 µM | M14 16.4 µM | NCI-H23 23.7 µM | ACHN 10.6 µM | OVCAR-4 22.5 µM | CCRF-CEM 2.69 µM

N#CC1=C(O)NC(O)=C(C#N)C1c1ccc(C2C(C#N)=C(O)NC(O)=C2C#N)cc1
inactive: UO-31 > 100 µM | M19-MEL 67.8 µM | K562 53.2 µM | SF-295 > 100 µM | NCI-H522 19.7 µM | HCC 2998 > 100 µM | NCI-H460 46.5 µM | A549 58.9 µM | SNB-75 > 100 µM | M14 > 100 µM | NCI-H23 > 100 µM | ACHN > 100 µM | OVCAR-4 > 100 µM | UACC-257 > 100 µM | CCRF-CEM 45.3 µM

c1cc(N(CCn2cccn2)CCn2cccn2)cc(N(CCn2cccn2)CCn2cccn2)c1
inactive: UO-31 > 100 µM | M19-MEL > 100 µM | K562 > 100 µM | SF-295 > 100 µM | NCI-H522 > 100 µM | HCC 2998 > 100 µM | NCI-H460 > 100 µM | A549 > 100 µM | SNB-75 > 100 µM | M14 > 100 µM | ACHN > 100 µM | OVCAR-4 > 100 µM | UACC-257 > 100 µM | CCRF-CEM > 100 µM
